From patent US8569524B2, “Bis(tetrahydrofuran) compound, method for production of the compund, and use of the compound” (Glytech Inc., priority 2007, dated 2013)

Tested on: Pheochromocytoma (PC12) cells
Experiment: Neurite outgrowth activity test in PC12 cells in the presence of NGF
Type: cell-based
Conditions: in the presence of DMSO and NGF (20 ng/ml), compared with the sample without compound, micrographs
Experimental: When the solvent was ethanol, the concentrations were targeted at 1 mM, 0.1 mM, and […]. A sample at 1 mM concentration was prepared first. When the amount of sample was 1 mg, the sample was dissolved in 100% ethanol (1/molecular weight×1,000)/2 ml, and an equal amount of Milli-Q (1/molecular weight×1,000)/2 ml was added thereto, after which the sample was filtered through a […] into a sample tube.
A sample at 0.1 mM concentration was prepared by diluting 1 mM solution 10-fold with 50% ethanol. Likewise, a sample at […] concentration was prepared from 0.1 mM solution.
When the solvent was DMSO, the concentrations were targeted at 10 mM, 1 mM, and 0.1 mM.
When the sample is prepared in ethanol, the sample is diluted 100-fold with the medium; and when the sample is prepared in DMSO, the sample is diluted 1,000-fold in the medium. The actual concentrations of the sample were thus […] both when the sample was prepared in ethanol and when the sample was prepared in DMSO.
Measurement was carried out using the following equipment and software.
Statistical processing of obtained data was carried out using “Origin ver. 7.0” (OriginLab, USA) and Mac Statistical Analysis. The significant difference was determined using Student's T-test and Dunnett's T-test.
Pheochromocytoma (PC12) cells were purchased from the Health Science Research Resources Bank of the Japan Health Sciences Foundation. Cell number: JCRB0733, product name: PC-12.
PC12 cells were cultivated in a medium having a composition including DMEM/10% HS, 5% FBS, 50 IU/ml penicillin, and […], in a culture flask coated with rat tail-derived collagen, in an incubator (95% humidity, 5% carbon dioxide). When the cell density becomes obviously too low, or when the cells overproliferate, the cells would be under load, requiring a longer time for proliferation and/or causing the cells to dye out. Thus, the cells were subcultured such that the cells would be present at a density of about 80% in the flask. When cells were subcultured or when activity evaluation tests were carried out, the cells were treated with trypsin (0.25%, 5 min.) to obtain a cell suspension, which was then seeded into a collagen-coated culture flask or plate.
The condition of the PC12 cells was observed; it was confirmed that at least 50% of the PC12 cells were fused. The plate was coated with rat tail-derived collagen; on the following day, the plate was washed twice with Milli-Q water. Then, a medium having a composition including DMEM/10% HS, 5% FBS, 50 IU/ml penicillin, and […] was prepared.
The medium in the culture flask was removed by suction. The PC12 cells were washed twice with PBS (5 mL), and trypsin (3 mL) was added thereto, which was then left to stand for about 5 minutes. A cell suspension was obtained by pipetting. In order to inhibit the activity of the trypsin, the cell suspension was transferred to a 50 mL centrifuge tube containing a serum-containing medium (2 mL). The total amount was adjusted to 10 mL with PBS, and the cell suspension was centrifuged (1,000 rpm×5 min). After centrifuging, the supernatant liquid was removed by suction using a pump, PBS (10 mL) was added thereto, and pipetting was carried out several times using a bent-tip Komagome pipette. After pipetting, the cell suspension was centrifuged again, and a similar operation was repeated twice. […]

CO[C@@]1(C)C[C@@H]2OCC3=CCCCC32O1 (some centres unmarked) [Compound 1C-2-1] was tested. Which neurite outgrowth activity (1 μM compound) did it give?
Its neurite outgrowth activity is “further enhanced neurite outgrowth activity”.

What about the neurite outgrowth activity (10 μM compound) of the same compound?
The neurite outgrowth activity was “further enhanced neurite outgrowth activity”.

What does the source list for CO[C@]1(C)C[C@@H]2OCC3=CCCCC32O1 (some centres unmarked) [Compound 1D-2-1]?
neurite outgrowth activity (1 μM compound): further enhanced neurite outgrowth activity; neurite outgrowth activity (10 μM compound): further enhanced neurite outgrowth activity

CCO[C@]1(C)C[C@@H]2OCC3=CCCC[C@]32O1 [Compound 1D-2-3] was tested. Which neurite outgrowth activity (10 μM compound) did it give?
Its neurite outgrowth activity is “further enhanced neurite outgrowth activity”.
